Measured values from patent publication US20240366535A1, “FORMULATION WITH IMPROVED BIOAVAILABILITY” (MERRY LIFE BIOMEDICAL COMPANY, LTD., priority 2023, published 2024).

What was measured:
[1] = Dissolution test in medium simulating intestinal juice (pH 6.8 phosphate buffer), 30 min; type: physicochemical; details: Medium pH 6.8 Phosphate Buffer
Experimental: (§1) Dissolution Test in 0.1 HCl and pH 6.8 Phosphate Buffer, 30 Min
(§2) The dissolution of TML-6 (API alone) and TML-6 formulations (E01 to E12) were measured in mediums simulating gastric juice for 30 mins, and the results are as shown in Table 5 and 6. The dissolution of TML-6 (API alone) and TML-6 formulations (E13 to E17) were measured in mediums simulating intestinal juice for 30 mins, and the results are as shown in Table 6.

[2] = Pharmacokinetics (PK) studies in rats, single oral dose; type: in vivo; details: male, Sprague-Dawley, TML-6 in rat plasma, 25.0 mg/kg single dose, 0.5% MC suspension
Experimental: The objective of this study is to obtain the pharmacokinetic profiles of TML-6 API (unformulated, crystalline), TML-6 formulation E02 (crystalline) and TML-6 formulations E10, E12 and E13 (amorphous) though oral (PO) doses when administrated to 6-8 week old male Sprague-Dawley rats (BioLASCO Taiwan Co. Ltd). A study design of five doses on rats. Animals received a single dose of TML-6 API, TML-6 formulations E02, E10, E12 and E13 at 25 mg/kg via oral gavage.
Dosing Solution Preparation: The TML-6 API, E02, E10, E12 and E13 oral formulations were prepared by suspending these TML6 formulated powder in the aqueous vehicle composed of 0.5% methylcellulose (MC) to the concentration of 2.5 mg/mL TML-6, respectively.
Plasma Sample Preparation and Bioanalysis Serial blood samples were collected from all animals through the tail veins. Approximately 0.2 mL blood samples were collected at each following time points: predose and 0.083, 0.25, 0.5, 1, 2, 4, 6, 8, 10 and 24 hours post-dose. Separation of plasma was prepared by centrifugation (1,000×g for 15 minutes at 4° C.) after blood sampling. Concentrations of TML-6 in rat plasma were determined by liquid chromatography-tandem mass spectrometry (LC-MS/MS), as shown in FIGS. 6 and 7. The lower limit of quantification (LLOQ) was 0.1 ng/mL. […]

[3] = Dissolution test in medium simulating gastric juice (0.1N HCl), 30 min; type: physicochemical; details: Medium 0.1N HCl
Experimental: as §1, §2

SMILES: CCN(CC)C(=O)CC(C)(C(=O)/C=C/c1ccc(OC)c(OC)c1)C(=O)/C=C/c1ccc(OC)c(OC)c1 [API alone]
- Dissolution within 30 mins [1]: 0.06%
- AUC(0-inf) [2]: 73.6 ng·h/mL
- Cmax [2]: 25.3 ng/mL
- Dissolution within 30 min [3]: 0.1%
